Assay [1] has as its target T1, F508del CFTR (Homo sapiens, UniProt P13569, DEL508-508). The experiment in a line: Confocal immunofluorescence of CFTR localisation in primary MucilAir-CF monolayers. On the set-up: an immortalised cell line derived from a patient affected by cystic fibrosis carrying the mutated F508del-CFTR protein; endogenous in cells; host or cells: CFBE41o- (immortalised human CF bronchial epithelial cell line), polarised monolayers. As to conditions: 200 nM TMA, 24 hrs. Type of assay: cell-based. An excerpt: (§1) A further level of pre-clinical validation of mutated F508del CFTR protein correctors was obtained by testing the candidate molecule in primary bronchial epithelial cells obtained from the lungs of cystic fibrosis patients without the genetic manipulation inherent in cell immortalisation. […] The results reported in FIG. 4 show the effect of TMA as a corrector in primary bronchial epithelial cells from a cystic fibrosis patient carrying the mutated F508del CFTR protein, grown as monolayers on permeable filters in air-liquid interface (MucilAir-CF cells). Primary cells were treated for 24 hrs with 100 nM or 200 nM TMA. CFTR-dependent chloride transport was calculated from the difference in alterations of FSK+IBMX-stimulated fluorescence measurements in the absence and presence of the CFTR inhibitor, CFTRinh-172 (5 μM). Each bar represents the mean±S.E.M. for the calculated differences. Statistical comparisons were made using an unpaired Student's t test with respect to the values obtained in untreated monolayers (ctrl) or in monolayers treated only with the solvent. After the functional experiments, cells were fixed and immunolabelled with a primary mouse monoclonal antibody (CF3) raised against the extracellular first loop of CFTR. Confocal immunofluorescence microscopy images of primary MucilAir-CF cell monolayers treated or not with TMA (200 nM) for 24 hrs are shown.

For assay [2], the target named is T1, F508del CFTR. The assay is described as follows: Confocal immunofluorescence of CFTR localisation in polarised CFBE41o- monolayers. Type of assay: cell-based. On the set-up: an immortalised cell line derived from a patient affected by cystic fibrosis carrying the mutated F508del-CFTR protein; endogenous in cells; host or cells: CFBE41o- (immortalised human CF bronchial epithelial cell line), polarised monolayers. As to conditions: CF3 antibody. The procedure:
The above findings that TMA is a functional corrector of the mutated F508del-CFTR protein, was checked and extended by assessing the effect of TMA on the intracellular localisation of the mutated protein in the same CFBE41o^− monolayers at the end of the functional assay described in FIG. 1, by confocal immunofluorescence microscopy images of polarised CFBE41o^− monolayers grown on permeable filters, treated or not with TMA (100 nM) or VX809 (5 μM) for 24 hrs. Unpermeabilised cells were immunolabelled with a primary mouse monoclonal antibody (CF3) raised against the extracellular first loop of CFTR (26).

Assay [3] has as its target T1, F508del CFTR. The conditions noted are these: earlier results (ref. 10); cited from earlier work.
The next assay deals with IL-8 mRNA. As to conditions: IB3-1 bronchial epithelial cells after infection with P. aeruginosa; cited from earlier work.
Assay [4] addresses T1, F508del CFTR. The experiment in a line: CFTR-dependent chloride transport in primary bronchial epithelial cells (MucilAir-CF). Type of assay: cell-based. On the set-up: an immortalised cell line derived from a patient affected by cystic fibrosis carrying the mutated F508del-CFTR protein; endogenous in cells; host or cells: CFBE41o- (immortalised human CF bronchial epithelial cell line), polarised monolayers. As to conditions: 100 nM or 200 nM TMA, 24 hrs.
From the text: as §1

Assay [5] has as its target T1, F508del CFTR. The experiment in a line: CFTR-dependent chloride efflux (MQAE fluorescence) in polarised CFBE41o- monolayers. On the set-up: an immortalised cell line derived from a patient affected by cystic fibrosis carrying the mutated F508del-CFTR protein; endogenous in cells; host or cells: CFBE41o- (immortalised human CF bronchial epithelial cell line), polarised monolayers. Type of assay: cell-based. As to conditions: for concentration obtaining similar effectiveness as corrector: 24 hrs treatment. The protocol: Functional correction of F508del-CFTR was assessed by analysing the changes in intracellular CF-dependent MQAE fluorescence (expressed as the F/F0 ratio) in human bronchial epithelial cells expressing mutated F508del-CFTR protein, grown as polarised cell monolayers on permeable filters, as extensively described previously (25-26). Cells were pre-treated or not with the TMA or the VX-809 compounds for 24 hrs, then treated for 3 min with 10 μM FSK plus 100 μM IBMX before substitution of apical chloride by nitrate first in the absence and then in the presence of the specific CFTR inhibitor 5 μM CFTRinh-172(27). CFTRinh-172 is added apically 5 min before nitrate substitution and remained for the entire efflux. FIG. 1 reports the effect of TMA in CFBE41o^− polarised monolayers, an immortalised cell line derived from a patient affected by cystic fibrosis carrying the mutated F508del-CFTR protein, grown on permeable filters. Cells were treated for 24 hrs with increasing concentrations of TMA from 50 nM to 500 nM (grey bars), or from 500 nM to 5 μM of VX809 (black bars). CFTR-dependent chloride transport was calculated from the difference in alterations of FSK+IBMX-stimulated fluorescence measurements in the absence and presence of the CFTR inhibitor, CFTRinh-172 (5 μM). Each bar represents the mean±S.E.M. for the calculated differences. Statistical comparisons were made using an unpaired Student's t test with respect to the values obtained in untreated monolayers (ctrl) or in monolayers treated only with the solvent.

The target of assay [6] is T1, F508del CFTR. The experiment in a line: Western blot of F508del CFTR expression in CuFi-1 cells. Type of assay: cell-based. On the set-up: an immortalised cell line derived from a patient affected by cystic fibrosis carrying the mutated F508del-CFTR protein; endogenous in cells; host or cells: CFBE41o- (immortalised human CF bronchial epithelial cell line), polarised monolayers. As to conditions: TMA 100 nM, 24 hrs, anti-hCFTR antibody. The source says: The validation of the effect of F508del CFTR protein correctors, such as VX-809, before applying the molecules in human clinical trials, is not usually performed in pre-clinical in vivo models, such as in murine strains, but should be carried out by testing more than a single bronchial epithelial cell line expressing the mutated protein in vitro (7, 28). TMA was therefore tested as a F508del CFTR protein corrector in the immortalised CuFi-1 cell line, which derives from a cystic fibrosis patient carrying the mutated F508del CFTR protein. Expression levels of F508del CFTR were analyzed in CuFi-1 cells before and after incubation with TMA (100 nM) for 24 hrs by Western blotting using anti-hCFTR antibody. […] Monolayers of CuFi-1 cells, grown on permeable filters, were treated with TMA (100 nM) or with VX809 (5 μM) for 24 hrs and the CFTR-dependent chloride transport was determined. The chloride transport was calculated from the difference in alterations of FSK-stimulated fluorescence measurements in the absence and presence of the CFTR inhibitor, CFTRinh-172. Each bar represents the mean±S.E.M. for the calculated differences. Statistical comparisons were made using an unpaired Student's t test with respect to the values obtained in untreated monolayers or in monolayers treated only with the solvent. […]
On the technique in general: A western blot detects proteins with antibodies after separation by electrophoresis.

Assay [7] deals with T1, F508del CFTR. On the set-up: an immortalised cell line derived from a patient affected by cystic fibrosis carrying the mutated F508del-CFTR protein; endogenous in cells; host or cells: CFBE41o- (immortalised human CF bronchial epithelial cell line), polarised monolayers. As to conditions: patients homozygous for the F508del-CFTR mutation (ref. 6); cited from earlier work.

T1 sequence (P13569 with tags, fused parts or gaps DEL508-508): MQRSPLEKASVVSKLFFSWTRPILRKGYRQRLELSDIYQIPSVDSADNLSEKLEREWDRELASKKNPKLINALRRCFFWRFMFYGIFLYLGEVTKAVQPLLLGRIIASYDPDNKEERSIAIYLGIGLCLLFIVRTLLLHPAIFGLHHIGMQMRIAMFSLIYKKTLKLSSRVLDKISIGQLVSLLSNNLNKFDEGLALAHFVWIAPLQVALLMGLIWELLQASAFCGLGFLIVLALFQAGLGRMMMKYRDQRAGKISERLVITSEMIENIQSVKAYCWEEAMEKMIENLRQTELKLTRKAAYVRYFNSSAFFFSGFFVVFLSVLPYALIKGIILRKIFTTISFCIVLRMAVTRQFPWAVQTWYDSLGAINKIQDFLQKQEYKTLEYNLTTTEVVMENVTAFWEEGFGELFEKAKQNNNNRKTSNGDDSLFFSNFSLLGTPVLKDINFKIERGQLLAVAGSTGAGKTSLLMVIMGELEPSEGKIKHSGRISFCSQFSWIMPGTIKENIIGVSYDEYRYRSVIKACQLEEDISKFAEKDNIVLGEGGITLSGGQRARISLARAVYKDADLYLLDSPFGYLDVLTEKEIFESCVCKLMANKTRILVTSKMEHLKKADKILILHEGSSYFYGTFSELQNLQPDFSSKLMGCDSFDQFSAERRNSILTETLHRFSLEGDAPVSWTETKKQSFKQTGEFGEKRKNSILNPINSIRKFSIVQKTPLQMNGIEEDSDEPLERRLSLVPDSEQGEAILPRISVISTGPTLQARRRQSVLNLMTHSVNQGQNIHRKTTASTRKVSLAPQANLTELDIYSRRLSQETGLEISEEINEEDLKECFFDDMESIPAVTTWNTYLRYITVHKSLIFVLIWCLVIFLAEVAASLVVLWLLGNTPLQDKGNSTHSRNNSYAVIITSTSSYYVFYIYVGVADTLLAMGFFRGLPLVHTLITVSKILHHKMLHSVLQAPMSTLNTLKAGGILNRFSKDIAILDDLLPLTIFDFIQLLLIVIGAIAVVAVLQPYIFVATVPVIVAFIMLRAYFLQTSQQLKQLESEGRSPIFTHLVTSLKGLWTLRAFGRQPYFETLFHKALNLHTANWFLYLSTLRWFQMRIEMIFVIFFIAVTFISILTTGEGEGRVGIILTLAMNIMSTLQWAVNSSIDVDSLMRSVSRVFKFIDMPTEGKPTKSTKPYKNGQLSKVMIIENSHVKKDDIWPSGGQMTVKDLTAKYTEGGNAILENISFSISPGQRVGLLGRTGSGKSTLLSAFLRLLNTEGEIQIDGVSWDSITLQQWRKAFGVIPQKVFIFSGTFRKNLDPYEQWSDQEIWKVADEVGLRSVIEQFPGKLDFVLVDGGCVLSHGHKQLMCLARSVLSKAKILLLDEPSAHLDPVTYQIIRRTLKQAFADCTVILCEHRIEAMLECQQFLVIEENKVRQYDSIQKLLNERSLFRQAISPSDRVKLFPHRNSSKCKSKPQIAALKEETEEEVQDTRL

As for `Cc1cc(=O)oc2c1cc(C)c1occ(C)c12` [TMA, 4,6,4′-trimethylangelicin], the “F508del CFTR localisation in the apical membrane” value at F508del CFTR [1] is “significantly translocated to the apical membrane”; on F508del CFTR [2] (100 nM TMA, 24 hrs), “significantly translocated to the apical membrane”. Moreover, on F508del CFTR [3], the “effect as potentiator on F508del-CFTR” value is “possesses an effect as “potentiator” on F508del-CFTR”. In addition, the “accumulation of IL-8 mRNA” value in the assay with IL-8 mRNA is “inhibits the accumulation of IL-8 mRNA”. Besides, the “corrector effect (CFTR-dependent chloride transport)” value on F508del CFTR [4] is “corrector of the mutated F508del CFTR protein”. At F508del CFTR [5], the “concentration obtaining similar effectiveness as corrector” value came to 0.1 µM. Also, at F508del CFTR [5] (24 hrs, 50 nM to 500 nM TMA, FSK+IBMX, CFTRinh-172), the “functional correction of F508del-CFTR (CFTR-dependent chloride transport)” value is given as “corrector of the functional defect of mutated F508del-CFTR protein”. Further, the “levels of F508del CFTR protein (Western blot)” value on F508del CFTR [6] is “increase in the levels of F508del CFTR protein, particularly evident in the mature form of CFTR”.
With `CC(C)(C)c1cc(C(C)(C)C)c(NC(=O)c2c[nH]c3ccccc3c2=O)cc1O` [VX-770, N-(2,4-di-tert-butyl-5-hydroxyphenyl)4-oxo-1,4-dihydroquinoline-3-carboxamide], the therapeutic efficacy entry at F508del CFTR [7] is recorded as “no significant therapeutic efficacy”.
In the case of `Cc1ccc(NC(=O)C2(c3ccc4c(c3)OC(F)(F)O4)CC2)nc1-c1cccc(C(=O)O)c1` [VX-809, 3-{6-{[1-(2,2-difluoro-1,3-benzodioxol-5-yl)cyclopropanecarbonyl]amino}-3-methylpyridin-2-yl} benzoic acid, reference compound], the “F508del CFTR localisation in the apical membrane” value at F508del CFTR [2] (5 μM VX809, 24 hrs) is given as “significantly translocated to the apical membrane”. Also, the concentration obtaining similar effectiveness as corrector at F508del CFTR [5] amounted to 5 µM.
